Experimental data taken from patent US20250312499A1, “KISSPEPTIN RECEPTOR (KISS1R) TARGETED THERAPEUTICS AND USES THEREOF” (priority 2024, published 2025).
Numbered stars: 1 amine (or outer) side, 2 acyl side, 3 side chain; on linkers, the order of the positions; unused ones are H or OH. Square brackets hold non-standard residues; d marks the D form. Peptide text beside a SMILES is read from it. * marks the point of attachment. DOTA = O=C(O)CN1CCN(CC(=O)O)CCN(CC(=O)*)CCN(CC(=O)O)CC1; Gly(N-(3-F-4-Me-benzyl)) = Cc1ccc(CNCC(=O)*)cc1F; Phe(3-F) = N[C@@H](Cc1cccc(F)c1)C(=O)O; X1 = O=C(CN1CCC(N[*:1])CC1)[*:2]; d4Pal = N[C@H](Cc1ccncc1)C(=O)O; 4Amb = NCc1ccc(C(=O)O)cc1; Api = NC1(C(=O)O)CCNCC1; Ahx = NCCCCCC(=O)O; azaGly = NNC(=O)O

These molecules were tested against human kisspeptin receptor (Homo sapiens (Human), UniProt Q969F8) (assay: Human KISS1R binding assay (membrane competition binding)). Details: 90 min at room temperature; competition with 0.2 nM [125I]-metastin (45-54); Flp-In T-Rex 293 kisspeptin membranes; metal complexes nonradioactive Ga, In, Lu; read-out: hKiSSR Binding Ki (90 min).
Protocol: Crude membrane fractions are prepared from Flp-In T-Rex 293 (Thermo Fisher) cell line expressing the human kisspeptin receptor. The cells are grown to 85-100% confluence on standard tissue culture dishes in Dulbecco's Modified Eagles Medium (DMEM) (Corning) supplemented with 10% FBS (Gemini), 1% penicillin-streptomycin-glutamine (Gibco), 500 μg/mL hygromycin, and 15 μg/mL blastacidin. 48 hrs prior to preparing membranes 10 μg/ml of tetracycline is added to the culture media to induce receptor expression. To prepare membranes, cells are scraped and collected in 1× Dulbecco's phosphate buffered saline (Corning) and then pelleted at 1000 RPMs. The cell pellet is reconstituted in membrane preparation buffer (20 mM HEPES, 6 mM MgCl2 and 1 mM EGTA, protease inhibitor tablets (Pierce), pH 7.4) and placed in a cell disruption vessel (Parr Instrument company) at 1000 PSI for 30 min on ice. The pressurized contents are then released and spun down at 1000 RPMs and the supernatant is collected and further centrifuged at 15,000 RPMs to pellet the membranes. The membrane pellet is resuspended in membrane preparation buffer, snap frozen and stored at −80° C. for later use.
The human kisspeptin membrane binding assay utilizes the following components: radiolabel [^125I]-metastin (45-54) (human) (Perkinhmer), crude Flp-In T-Rex 293 kisspeptin membranes, and competing small molecule and peptide ligands. The assay is initiated by combining in assay buffer (50 mM TrisHCl, 5 mM MgCl2, 2 mM EGTA, 10 mM CaCl2, 0.1% BSA, pH 7.4) a dose response of competing ligand (final concentrations are typically 0-10,000 nM), 5-10 μg of Flp-In T-Rex 293 kisspeptin membranes, and 0.2 n M [^125I]-metastin (45-54) in a 96-well assay plate and allowed to incubate 90 minutes at room temperature. Assay contents are then filtered through unifilter CF/C: microplates (PerkinElmer) pre-soaked with 0.5% BSA and washed with 9×400 μL of cold wash buffer (10 mM HEPES, 500 mM NaCl, 0.1% Tween-20, pH7.4). Assay plates are read using a Microbeta^2 (PerkinElmer) and Ki values for compounds are determined using a GraphPad Prism 9.3 non-linear regression analysis.

Chain of human kisspeptin receptor (Q969F8 whole entry): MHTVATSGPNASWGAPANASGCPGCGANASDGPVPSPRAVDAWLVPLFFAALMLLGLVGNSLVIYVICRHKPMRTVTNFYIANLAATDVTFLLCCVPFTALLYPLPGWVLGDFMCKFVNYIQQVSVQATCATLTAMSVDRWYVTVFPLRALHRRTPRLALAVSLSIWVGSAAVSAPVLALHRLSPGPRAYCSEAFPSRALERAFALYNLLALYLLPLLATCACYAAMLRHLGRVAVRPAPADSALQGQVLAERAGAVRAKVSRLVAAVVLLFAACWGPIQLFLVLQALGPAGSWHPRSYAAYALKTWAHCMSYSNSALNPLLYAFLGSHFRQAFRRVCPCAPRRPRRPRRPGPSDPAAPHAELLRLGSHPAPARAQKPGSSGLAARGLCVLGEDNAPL

| Ki | SMILES |
| --- | --- |
| < 10 nM | Cc1ccc(CNCC(=O)N2CCC(NC(=O)[C@H](CC(C)C)NC(=O)NNC(=O)[C@H](Cc3ccccc3)NC(=O)c3ccc(CNC(=O)CCCCCNC(=O)CN4CCN(CC(=O)O)CCN(CC(=O)O)CCN(CC(=O)O)CC4)cc3)(C(=O)N[C@@H](Cc3c[nH]c4ccccc34)C(N)=O)CC2)cc1F [Compound 22] ({DOTA-Ahx-4Amb}-F[azaGly]L[Api](Gly(N-(3-F-4-Me-benzyl)))W-NH2) |
| < 10 nM | Cc1ccc(CNCC(=O)N2CCC(NC(=O)[C@H](CC(C)C)NC(=O)NNC(=O)[C@H](Cc3ccccc3)NC(=O)[C@@H](NC(=O)[C@H](CC(N)=O)NC(=O)[C@@H](Cc3ccncc3)NC(=O)[C@@H](Cc3ccc(O)cc3)NC(=O)CN3CCN(CC(=O)O)CCN(CC(=O)O)CCN(CC(=O)O)CC3)[C@@H](C)O)(C(=O)N[C@@H](Cc3c[nH]c4ccccc34)C(N)=O)CC2)cc1F [Compound 23] ({DOTA}-[dY][d4Pal]NTF[azaGly]L[Api](Gly(N-(3-F-4-Me-benzyl)))W-NH2) |
| < 10 nM | Cc1ccc(CNCC(=O)N2CCC(NC(=O)[C@H](CC(C)C)NC(=O)NNC(=O)[C@H](Cc3cccc(F)c3)NC(=O)[C@@H](NC(=O)[C@H](CC(N)=O)NC(=O)[C@H](CCC(=O)O)NC(=O)[C@@H](Cc3ccc(O)cc3)NC(=O)CN3CCC(NC(=O)CN4CCN(CC(=O)O)CCN(CC(=O)O)CCN(CC(=O)O)CC4)CC3)[C@@H](C)O)(C(=O)N[C@@H](Cc3c[nH]c4ccccc34)C(N)=O)CC2)cc1F [Compound 24] ({DOTA}-[X1][dY]ENT[Phe(3-F)][azaGly]L[Api](Gly(N-(3-F-4-Me-benzyl)))W-NH2) |
| < 10 nM | Cc1ccc(CNCC(=O)N2CCC(NC(=O)[C@H](CC(C)C)NC(=O)NNC(=O)[C@H](Cc3ccccc3)NC(=O)[C@@H](NC(=O)[C@H](CC(N)=O)NC(=O)CCCCCNC(=O)CN3CCN(CC(=O)O)CCN(CC(=O)O)CCN(CC(=O)O)CC3)[C@@H](C)O)(C(=O)N[C@@H](Cc3c[nH]c4ccccc34)C(N)=O)CC2)cc1F [Compound 26] ({DOTA-Ahx}-NTF[azaGly]L[Api](Gly(N-(3-F-4-Me-benzyl)))W-NH2) |
| < 10 nM | Cc1ccc(CNCC(=O)N2CCC(NC(=O)[C@H](CC(C)C)NC(=O)NNC(=O)[C@H](Cc3cccc(F)c3)NC(=O)[C@@H](NC(=O)[C@H](CC(N)=O)NC(=O)[C@H](CCCCN)NC(=O)[C@@H](Cc3ccc(O)cc3)NC(=O)CCCCCNC(=O)CN3CCN(CC(=O)O)CCN(CC(=O)O)CCN(CC(=O)O)CC3)[C@@H](C)O)(C(=O)N[C@@H](Cc3c[nH]c4ccccc34)C(N)=O)CC2)cc1F [Compound 27] ({DOTA-Ahx}-[dY]KNT[Phe(3-F)][azaGly]L[Api](Gly(N-(3-F-4-Me-benzyl)))W-NH2) |
| < 10 nM | Cc1ccc(CNCC(=O)N2CCC(NC(=O)[C@H](CC(C)C)NC(=O)NNC(=O)[C@H](Cc3ccccc3)NC(=O)CN3CCC(NC(=O)CN4CCN(CC(=O)O)CCN(CC(=O)O)CCN(CC(=O)O)CC4)CC3)(C(=O)N[C@@H](Cc3c[nH]c4ccccc34)C(N)=O)CC2)cc1F [Compound 28] ({DOTA}-[X1]F[azaGly]L[Api](Gly(N-(3-F-4-Me-benzyl)))W-NH2) |
| < 10 nM | Cc1ccc(CNCC(=O)N2CCC(NC(=O)[C@H](CC(C)C)NC(=O)NNC(=O)[C@H](Cc3ccccc3)NC(=O)[C@@H](NC(=O)[C@H](CC(N)=O)NC(=O)[C@@H](Cc3ccncc3)NC(=O)[C@@H](Cc3ccc(O)cc3)NC(=O)CN3CCC(NC(=O)CN4CCN(CC(=O)O)CCN(CC(=O)O)CCN(CC(=O)O)CC4)CC3)[C@@H](C)O)(C(=O)N[C@@H](Cc3c[nH]c4ccccc34)C(N)=O)CC2)cc1F [Compound 29] ({DOTA}-[X1][dY][d4Pal]NTF[azaGly]L[Api](Gly(N-(3-F-4-Me-benzyl)))W-NH2) |
| < 10 nM | Cc1ccc(CNCC(=O)N2CCC(NC(=O)[C@H](CC(C)C)NC(=O)NNC(=O)[C@H](Cc3ccccc3)NC(=O)[C@@H](NC(=O)[C@H](CC(N)=O)NC(=O)[C@@H](Cc3c[nH]c4ccccc34)NC(=O)CCCCCNC(=O)CN3CCN(CC(=O)O)CCN(CC(=O)O)CCN(CC(=O)O)CC3)[C@@H](C)O)(C(=O)N[C@@H](Cc3c[nH]c4ccccc34)C(N)=O)CC2)cc1F [Compound 30] ({DOTA-Ahx}-[dW]NTF[azaGly]L[Api](Gly(N-(3-F-4-Me-benzyl)))W-NH2) |
| < 10 nM | Cc1ccc(CNCC(=O)N2CCC(NC(=O)[C@H](CC(C)C)NC(=O)NNC(=O)[C@H](Cc3ccccc3)NC(=O)[C@@H](NC(=O)[C@H](CC(N)=O)NC(=O)[C@@H](Cc3ccncc3)NC(=O)[C@@H](Cc3ccc(O)cc3)NC(=O)CCCCCNC(=O)CN3CCN(CC(=O)O)CCN(CC(=O)O)CCN(CC(=O)O)CC3)[C@@H](C)O)(C(=O)N[C@@H](Cc3c[nH]c4ccccc34)C(N)=O)CC2)cc1F [Compound 31] ({DOTA-Ahx}-[dY][d4Pal]NTF[azaGly]L[Api](Gly(N-(3-F-4-Me-benzyl)))W-NH2) |
| < 10 nM | Cc1ccc(CNCC(=O)N2CCC(NC(=O)[C@H](CC(C)C)NC(=O)NNC(=O)[C@H](Cc3ccccc3)NC(=O)[C@@H](NC(=O)[C@H](CC(N)=O)NC(=O)[C@@H](Cc3c[nH]c4ccccc34)NC(=O)[C@@H](Cc3c[nH]cn3)NC(=O)[C@@H](Cc3ccc(O)cc3)NC(=O)CCCCCNC(=O)CN3CCN(CC(=O)O)CCN(CC(=O)O)CCN(CC(=O)O)CC3)[C@@H](C)O)(C(=O)N[C@@H](Cc3c[nH]c4ccccc34)C(N)=O)CC2)cc1F [Compound 32] ({DOTA-Ahx}-[dY][dH][dW]NTF[azaGly]L[Api](Gly(N-(3-F-4-Me-benzyl)))W-NH2) |
| < 10 nM | Cc1ccc(CNCC(=O)N2CCC(NC(=O)[C@H](CC(C)C)NC(=O)NNC(=O)[C@H](Cc3ccccc3)NC(=O)[C@@H](NC(=O)[C@H](CC(N)=O)NC(=O)[C@@H](Cc3c[nH]c4ccccc34)NC(=O)[C@@H](Cc3c[nH]cn3)NC(=O)[C@@H](Cc3ccc(O)cc3)NC(=O)CN3CCC(NC(=O)CN4CCN(CC(=O)O)CCN(CC(=O)O)CCN(CC(=O)O)CC4)CC3)[C@@H](C)O)(C(=O)N[C@@H](Cc3c[nH]c4ccccc34)C(N)=O)CC2)cc1F [Compound 33] ({DOTA}-[X1][dY][dH][dW]NTF[azaGly]L[Api](Gly(N-(3-F-4-Me-benzyl)))W-NH2) |
| < 10 nM | Cc1ccc(CNCC(=O)N2CCC(NC(=O)[C@H](CC(C)C)NC(=O)NNC(=O)[C@H](Cc3cccc(F)c3)NC(=O)[C@@H](NC(=O)[C@H](CC(N)=O)NC(=O)[C@H](Cc3c[nH]c4ccccc34)NC(=O)[C@@H](Cc3ccc(O)cc3)NC(=O)CCCCCNC(=O)CN3CCN(CC(=O)O)CCN(CC(=O)O)CCN(CC(=O)O)CC3)[C@@H](C)O)(C(=O)N[C@@H](Cc3c[nH]c4ccccc34)C(N)=O)CC2)cc1F [Compound 35] ({DOTA-Ahx}-[dY]WNT[Phe(3-F)][azaGly]L[Api](Gly(N-(3-F-4-Me-benzyl)))W-NH2) |
| < 10 nM | Cc1ccc(CNCC(=O)N2CCC(NC(=O)[C@H](CC(C)C)NC(=O)NNC(=O)[C@H](Cc3cccc(F)c3)NC(=O)[C@@H](NC(=O)[C@H](CC(N)=O)NC(=O)[C@H](CCC(=O)O)NC(=O)[C@@H](Cc3ccc(O)cc3)NC(=O)CCCCCNC(=O)CN3CCN(CC(=O)O)CCN(CC(=O)O)CCN(CC(=O)O)CC3)[C@@H](C)O)(C(=O)N[C@@H](Cc3c[nH]c4ccccc34)C(N)=O)CC2)cc1F [Compound 36] ({DOTA-Ahx}-[dY]ENT[Phe(3-F)][azaGly]L[Api](Gly(N-(3-F-4-Me-benzyl)))W-NH2) |
| < 10 nM | Cc1ccc(CNCC(=O)N2CCC(NC(=O)[C@H](CC(C)C)NC(=O)NNC(=O)[C@H](Cc3ccccc3)NC(=O)[C@@H](N)CCCCNC(=O)CN3CCN(CC(=O)O)CCN(CC(=O)O)CCN(CC(=O)O)CC3)(C(=O)N[C@@H](Cc3c[nH]c4ccccc34)C(N)=O)CC2)cc1F [Compound 37] (H-K(DOTA)F[azaGly]L[Api](Gly(N-(3-F-4-Me-benzyl)))W-NH2) |
